Patent US20110136259A1, “IMMUNOASSAY FOR CROSS-REACTING SUBSTANCES” (LIFE TECHNOLOGIES CORPORATION, priority 2007, published 2011)

How the values were obtained:
[1] = tested on: Antibody 7 (clone XM210 from Abcam); test: Cross reactivity on anti-cortisol antibody microarray, antibody 7; format: binding; conditions: for Percent cross reactivity, antibody 7: determined by 2000 ng/mL sample; for % cross reactivity, antibody 7: from slopes of ([apparent cortisol] vs [cross reactant])
Source text: (§1) The independent variables, these are x1 and x2 in the model are the various concentrations levels, where x1 is the concentration level of cortisol and x2 is the concentration level of the cross-reactant (in this case either 6AMP or prednisolone). The dependent variable, i.e. the variable that we are trying to predict, is the “apparent” cortisol concentration, which is estimated from the concentration-signal 4 parameter logistic regression model. […] These equations are given by,
(§2) In terms of the model β1 is interpreted as the amount that the “apparent” cortisol is increase per ng/ml increase of cortisol and similarly β2 is interpreted as the amount that the “apparent” cortisol is increased per ng/ml increase of cross-reactant. Finally to estimate the percent cross action it is given by:
(§3) The antibody concentrations were 125 ug/mL in buffered solutions comprising phosphate-buffered saline (PBS) and 1× Whatman Protein Arraying Buffer. The antibody solutions were applied to the slide surface using a Scienion sciflexarryer S5 piezo printer. The average spot sizes were 150 um. The antibodies within a sub array were printed in replicates of five spots, and each slide contained twelve sub arrays arranged in two columns of six. The relative spacing of the sub arrays was nine millimeters, equivalent to the spacing of a 96-well micro titer plate.
The micro-array slides were assembled with a superstructure that creates individual wells that surround the sub array (Slide Incubation Chambers, Whatman). The slides were blocked for one hour with micro array blocking buffer (VWR) and then washed with TRIS-buffered saline with Tween-20 (TBST). Cortisol-containing samples or calibrators were diluted 1 to 20 into a buffered solution that contained the following: TBST, 0.1% SDS, 3.3 nM cortisol 3-CMO Alexa Fluor 555, and 3.3 nM cortisol 21-HS Alexa Fluor 647. One-hundred micro liters of the assay mixture was applied to an individual well on the micro-array slide, and the assay was allowed to proceed for one hour at room temperature in the dark with gentle shaking on a micro-titer plate shaker. The assay mixture was removed, and the slides were washed with TBST, water, and then dried by spinning in a centrifuge. The intensities of fluorescence associated with each spot was quantified using a micro-array reader such as an Axon 4000B or 4200AL. The spot intensities for the calibrators were used to generate a standard curve by fitting the data to a four-parameter logistic model. The concentrations of the cortisol-containing patient samples or synthetic samples were interpolated using the logistic-fit equation. […]

[2] = tested on: Antibody 10 (clone A29220314P from BiosPacific); test: Cross reactivity on anti-cortisol antibody microarray, antibody 10; format: binding; conditions: for Percent cross reactivity, antibody 10: determined by 2000 ng/mL sample; for % cross reactivity, antibody 10: from slopes of ([apparent cortisol] vs [cross reactant])
Source text: as §1, §2, §3
(§4) The micro-array slides were assembled with a superstructure that creates individual wells that surround the sub array (Slide Incubation Chambers, Whatman). The slides were blocked for one hour with micro array blocking buffer (VWR) and then washed with TRIS-buffered saline with Tween-20 (TBST). Cortisol-containing samples or calibrators were diluted 1 to 20 into a buffered solution that contained the following: TBST, 0.1% SDS, 3.3 nM cortisol 3-CMO Alexa Fluor 555, and 3.3 nM cortisol 21-HS Alexa Fluor 647. One-hundred micro liters of the assay mixture was applied to an individual well on the micro-array slide, and the assay was allowed to proceed for one hour at room temperature in the dark with gentle shaking on a micro-titer plate shaker. The assay mixture was removed, and the slides were washed with TBST, water, and then dried by spinning in a centrifuge. The intensities of fluorescence associated with each spot was quantified using a micro-array reader such as an Axon 4000B or 4200AL. The spot intensities for the calibrators were used to generate a standard curve by fitting the data to a four-parameter logistic model. The concentrations of the cortisol-containing patient samples or synthetic samples were interpolated using the logistic-fit equation.
(§5) Subsequently, several cortisol antibodies were synthesized and relative cross reactivities were determined for the synthetic glucocorticoids obtained via the same described the Beckmann system (Tables 4 & 5). Cortisol antibodies should have specificity to distinguish the differences in the A ring of the steroid molecules shown below.

[3] = tested on: Antibody 9 (clone F4P1A3 from EMD Biosciences); test: Cross reactivity on anti-cortisol antibody microarray, antibody 9; format: binding; conditions: for Percent cross reactivity, antibody 9: determined by 2000 ng/mL sample; for % cross reactivity, antibody 9: from slopes of ([apparent cortisol] vs [cross reactant])
Source text: as §1, §2, §3, §4, §5

[4] = tested on: Beckmann Access (commercial cortisol immunoassay); test: Synthetic glucocorticoid cross reactivity in Beckman Access cortisol immunoassay; format: binding; parameters: Access Cortisol Value: unit: ng/mL; conditions: for Access Cortisol Value: Method 1: all synthetics present at 2000 ng/mL, apparent cortisol read by Beckmann Access; for Percent cross reactivity, Access: determined by 2000 ng/mL sample; for % Reactivity (Method 2): serial dilutions 1:2, 1:4, 1:8 and 1:16, linear analysis evaluation; for % Reactivity (Method 1): synthetic present at 2000 ng/mL, (cortisol value)/(concentration of analyte) x 100%
Experimental: Initial synthetic glucocorticoid antibody cross reactivity data included LC-MS/MS analysis of patient samples was followed by analysis via the Beckman immunoassay system, and relative cross reactivities were calculated for each of the synthetic glucocorticoids of interest. Cross reactivities were also calculated based on a linearity study of each of the major cross reactive synthetic glucocorticoids to ensure that the values obtained for each were viable. (Table 1).
(§6) LC-MS/MS analysis of patient samples was followed by analysis using the Beckman Access (commercial assay), and relative cross reactivities were calculated for each of the synthetic glucocorticoids of interest. Synthetic positive patient samples were then mimicked in stripped serum for cortisol, cortisone and exogenous synthetic glucocorticoids. […] The linear relationship for these systems was examined and illustrated.

antibody 17 = test: Cross reactivity on anti-cortisol antibody microarray, antibody 17; format: binding; conditions: for Percent cross reactivity, antibody 17: determined by 2000 ng/mL sample; for % cross reactivity, antibody 17: from slopes of ([apparent cortisol] vs [cross reactant])
Source text: (§7) This model is used to estimate the cross-reaction percentage. The independent variables, these are x1 and x2 in the model are the various concentrations levels, where x1 is the concentration level of cortisol and x2 is the concentration level of the cross-reactant (in this case either 6AMP or prednisolone). The dependent variable, i.e. the variable that we are trying to predict, is the “apparent” cortisol concentration, which is estimated from the concentration-signal 4 parameter logistic regression model. We fit this model using standard multiple linear regression methods to estimate β1 and β2. These equations are given by,
as §2, §3, §4, §5

antibody 13 = test: Cross reactivity on anti-cortisol antibody microarray, antibody 13; format: binding; conditions: for Percent cross reactivity, antibody 13: determined by 2000 ng/mL sample; for % cross reactivity, antibody 13: from slopes of ([apparent cortisol] vs [cross reactant])
Source text: as §7, §2, §3, §4, §5

[5] = LC-MS/MS analysis of synthetic-positive patient samples; format: in vivo; conditions: population of positive patient samples
Source text: In the present method mass spectrometric methods were used to determine actual analyte levels in clinical patient populations. Some of these samples were subjected to the current immunoassay systems and the interference relationship was established. After identifying the most commonly present exogenous drugs present in the samples, this information was used toward establishing an assay, free from the limitations of the mass spec. deconvolution, that gives an accurate depiction of the analyte, such as cortisol, levels in a patient sample.
A population was drawn of positive synthetic patient samples once cross reactivities were determined for individual steroids (Table 2).
as §6

antibody ECB = test: Cross reactivity on anti-cortisol antibody microarray, antibody ECB; format: binding; conditions: from slopes of ([apparent cortisol] vs [cross reactant])
Source text: as §7
(§8) In terms of the model β1 is interpreted as the amount that the “apparent” cortisol is increase per ng/ml increase of cortisol and similarly β2 is interpreted as the amount that the “apparent” cortisol is increased per ng/ml increase of cross-reactant. […]
(§9) The micro-array slides were assembled with a superstructure that creates individual wells that surround the sub array (Slide Incubation Chambers, Whatman). […] The intensities of fluorescence associated with each spot was quantified using a micro-array reader such as an Axon 4000B or 4200AL. […]
(§10) Subsequently, several cortisol antibodies were synthesized and relative cross reactivities were determined for the synthetic glucocorticoids obtained via the same described the Beckmann system (Tables 4 & 5). […]

antibody 21509 = test: Cross reactivity on anti-cortisol antibody microarray, antibody 21509; format: binding; conditions: from slopes of ([apparent cortisol] vs [cross reactant])
Source text: as §7, §8, §9, §10

| SMILES | Percent cross reactivity, antibody 7 [1] | % cross reactivity, antibody 7 [1] | Percent cross reactivity, antibody 10 [2] | % cross reactivity, antibody 10 [2] | Percent cross reactivity, antibody 9 [3] | % cross reactivity, antibody 9 [3] | Access Cortisol Value [4] | Percent cross reactivity, Access [4] | % Reactivity (Method 2) [4] | % Reactivity (Method 1) [4] | Percent cross reactivity, antibody 17 (antibody 17) | % cross reactivity, antibody 17 (antibody 17) | Percent cross reactivity, antibody 13 (antibody 13) | % cross reactivity, antibody 13 (antibody 13) | Range of steroid concentration in synthetic positive patient samples [5] | % cross reactivity, antibody ECB (antibody ECB) | % cross reactivity, antibody 21509 (antibody 21509) |
| --- | --- | --- | --- | --- | --- | --- | --- | --- | --- | --- | --- | --- | --- | --- | --- | --- | --- |
| C[C@H]1C[C@@H]2[C@H]([C@@H](O)C[C@@]3(C)[C@H]2CC[C@]3(O)C(=O)CO)[C@@]2(C)C=CC(=O)C=C12 [SYN-1, 6-a-methyl prednisolone] | 9% | 7% | high | 109% | 2% | 2% | 34.4 | 2% | 1.4% | 1.72% | 3% | 1% | 10% | 6% | 1.7 to 130 ng/mL |  |  |
| C[C@]12C=CC(=O)C=C1CC[C@@H]1[C@@H]2C(=O)C[C@@]2(C)[C@H]1CC[C@]2(O)C(=O)CO [SYN-2, Prednisone] | 1% | <1% | 0% | 1% | 21% | 26% | 50.8 | 3% | 2.2% | 2.54% | 20% |  | 1% |  | 1.9 to 72 ng/mL | 1% | <1% |
| CC1(C)O[C@@H]2C[C@H]3[C@@H]4CCC5=CC(=O)C=C[C@]5(C)[C@@]4(F)[C@@H](O)C[C@]3(C)[C@]2(C(=O)CO)O1 [SYN-3, Triamcinolone acetonide] |  |  |  |  |  |  |  |  |  |  |  |  |  |  | 0.3 to 2.3 ng/mL |  |  |
| C[C@]12C=CC(=O)C=C1CC[C@H]1[C@@H]3C[C@@H](O)[C@](O)(C(=O)CO)[C@@]3(C)C[C@H](O)[C@@]12F [SYN-4, Triamcinolone] | 0% |  | 0% |  | 1% |  | 1.1 | 0% |  | 0.055% | 0% |  | 0% |  |  |  |  |
| C[C@]12CCC(=O)C=C1CC[C@@H]1[C@@H]2C(=O)C[C@@]2(C)[C@H]1CC[C@]2(O)C(=O)CO [SYN-6, Cortisone] | 1% | 1% | 0% | <1% | 13% | 15% | 94 | 5% | 4.5% | 4.7% | 11% | 13% | 1% | 1% |  |  |  |
| C[C@]12C=CC(=O)C=C1CC[C@@H]1[C@@H]2[C@@H](O)C[C@@]2(C)[C@H]1CC[C@]2(O)C(=O)CO [SYN-7, Prednisolone] | 5% | 5% | 68% | 133% | 15% | 37% | 420.7 | 21% | 20.8% | 21.035% | 14% | 35% | 4% | 5% | 0.6 to 640 ng/mL |  |  |
| CC(=O)[C@@]1(O)CC[C@H]2[C@@H]3C[C@H](C)C4=CC(=O)C=C[C@]4(C)[C@@]3(F)[C@@H](O)C[C@@]21C [SYN-8, Fluorometholone] | 0% |  | 6% |  | 0% |  | 0.8 | 0% |  | 0.04% | 0% |  | 0% |  |  |  |  |
| C[C@@H]1C[C@H]2[C@@H]3CCC4=CC(=O)C=C[C@]4(C)[C@@]3(F)[C@@H](O)C[C@]2(C)[C@@]1(O)C(=O)CO [SYN-10, Dexamethasone] |  |  |  |  |  |  |  |  |  |  |  |  |  |  | 1.0 to 14.0 ng/mL |  |  |
